Source: patent US20250282760A1 (Merck Sharp & Dohme LLC, priority 2022, published 2025)

Target: T1, human OX2R (Homo sapiens, UniProt O43614)
T1 construct: expressed in transfected cells; host or cells: Chinese hamster ovary (CHO) cells, kept under G418 selection
T1 sequence (O43614 1-444): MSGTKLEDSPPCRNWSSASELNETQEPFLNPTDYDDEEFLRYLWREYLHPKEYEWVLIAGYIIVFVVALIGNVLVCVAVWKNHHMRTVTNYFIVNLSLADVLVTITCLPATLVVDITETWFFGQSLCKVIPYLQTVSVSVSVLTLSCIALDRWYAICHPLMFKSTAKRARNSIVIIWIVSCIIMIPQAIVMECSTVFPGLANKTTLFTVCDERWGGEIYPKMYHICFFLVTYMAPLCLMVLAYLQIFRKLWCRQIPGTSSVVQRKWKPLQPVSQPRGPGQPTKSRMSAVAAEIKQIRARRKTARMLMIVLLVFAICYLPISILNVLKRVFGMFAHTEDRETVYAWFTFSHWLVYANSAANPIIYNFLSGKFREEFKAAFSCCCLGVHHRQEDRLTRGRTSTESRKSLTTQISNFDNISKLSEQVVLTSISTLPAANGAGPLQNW
Test: IPOne (IP-1 accumulation) assay of orexin receptor agonist activity in CHO cells expressing human OX2R
Type: cell-based
Details: for IC50: CHO cells expressing human OX2R, IP-One assay, 2 hours incubation, four parameter logistic fit, read-out: hOX2R_IP IC50; for Emax: CHO, percent activity at maximum tested concentration, relative to reference compound at 1 uM (100% activity) for human OX2R
Excerpt: The utility of the compounds in accordance with the present invention as orexin receptor OX1R and/or OX2R agonists may be readily determined without undue experimentation by methodology well known in the art. Both the OX1R and/or OX2R G-coupled protein receptors (GPCRs) couple through the Gαq signaling pathway, which ultimately promotes calcium mobilization via inositol triphosphate (IP3) production. […] The utility of the compounds in accordance with the present invention as orexin receptor OX1R and/or OX2R agonists may be determined utilizing this assay.
In a typical experiment, the OX1 and OX2 receptor agonist activity is determined in accordance with the following general experimental method. Chinese hamster ovary (CHO) cells expressing human OX1R and/or the human OX2R were grown in Iscove's modified DMEM containing glutaMAX™, 1% G418, 100 U/mL penicillin, 100 μg/mL streptomycin and 10% heat-inactivated qualified fetal bovine serum (FBS). […] During this incubation, IP-one detection reagents were prepared (38:1:1 lysis buffer:D2:AB-cryptate reagents).
For each compound, data were fit to a four parameter logistic fit (ActivityBase software) and the EC50 was reported as the inflection point of the resulting curve. Percent effect for each test compound was determined as the percentage of sample raw value/mean max effect, where the mean max effect was derived from the mean raw value of 32 control wells per assay plate (using Orexin A (cat #003-30) at 1 μM for human OX1R and a reference compound at 1 uM with 100% activity previously established by comparison to Orexin A for human OX2R). The intrinsic orexin receptor agonist activity of a compound which may be used in the present invention may be determined by these assays.

SMILES: Cc1ccsc1C(=O)N1CCN(S(=O)(=O)c2ccccc2)CC1C(=O)NCc1ccc2ccccc2c1 (stereo not drawn) [Example 10-12, 1-(3-methylthiophene-2-carbonyl)-N-(naphthalen-2-ylmethyl)-4-(phenylsulfonyl)piperazine-2-carboxamide]
- IC50: 2.43 µM
- Emax: 89.4%

SMILES: CC(C)C(=O)N1[C@H](C)CN(S(=O)(=O)c2ccccc2)C[C@@H]1C(=O)NCc1ccc(OC(C)(F)F)cc1 (single isomer, unassigned) [Example 19-4-1]
- IC50: 0.0227 µM
- Emax: 100%

SMILES: CC(C)C(=O)N1C(C)CN(S(=O)(=O)c2ccccc2)CC1C(=O)NCc1ccc(-c2ccncc2)cc1 (stereo not drawn) [Example 42-3, 1-isobutyryl-6-methyl-4-(phenylsulfonyl)-N-(4-(pyridin-4-yl)benzyl)piperazine-2-carboxamide]
- IC50: 1.01 µM
- Emax: 4.39%

SMILES: CC(C)C(=O)N1[C@H](C)CN(S(=O)(=O)c2ccccc2)C[C@@H]1C(=O)NCc1ccc(OC(C)(F)F)cc1 (relative stereo) [Example 19-4, cis-N-(4-(1,1-difluoroethoxy)benzyl)-1-isobutyryl-6-methyl-4-(phenylsulfonyl)piperazine-2-carboxamide]
- IC50: 0.0702 µM
- Emax: 101%

SMILES: CCCc1ccc(CNC(=O)[C@H]2CN(S(=O)(=O)c3ccccc3)C[C@@H](C)N2C(=O)C(C)C)cc1 (relative stereo) [Example 19-10, cis-1-isobutyryl-6-methyl-4-(phenylsulfonyl)-N-(4-propylbenzyl)piperazine-2-carboxamide]
- IC50: 0.158 µM
- Emax: 93.8%

SMILES: Cc1ccc(S(=O)(=O)N2CCN(C(=O)c3cccs3)C(C(=O)NCc3ccc4ccccc4c3)C2)cc1 (stereo not drawn) [Example 89-1, N-(naphthalen-2-ylmethyl)-1-(thiophene-2-carbonyl)-4-tosylpiperazine-2-carboxamide]
- IC50: 5.72 µM
- Emax: 60.1%

SMILES: CC(C)C(=O)N1C(C(=O)NCc2ccc(-c3ccco3)cc2)CN(S(=O)(=O)c2ccccc2)CC1(C)C (stereo not drawn) [Example 83, N-(4-(furan-2-yl)benzyl)-1-isobutyryl-6,6-dimethyl-4-(phenylsulfonyl)piperazine-2-carboxamide]
- IC50: 0.0939 µM
- Emax: 89.9%

SMILES: CC(C)C(=O)N1[C@H](C)CN(S(=O)(=O)c2ccccc2)C[C@@H]1C(=O)NCc1cc(F)c(-c2ccco2)c(F)c1 (relative stereo) [Example 47-3, cis-N-(3,5-difluoro-4-(furan-2-yl)benzyl)-1-isobutyryl-6-methyl-4-(phenylsulfonyl)piperazine-2-carboxamide]
- IC50: 0.0295 µM
- Emax: 99.7%

SMILES: O=C(NCc1ccc2ccccc2c1)C1CN(S(=O)(=O)c2ccccc2)CCN1C(=O)c1ccco1 (stereo not drawn) [Example 10-9, 1-(furan-2-carbonyl)-N-(naphthalen-2-ylmethyl)-4-(phenylsulfonyl)piperazine-2-carboxamide]
- IC50: 6.17 µM
- Emax: 93.8%

SMILES: O=C(NCc1ccc2ccccc2c1)C1CN(S(=O)(=O)c2ccccc2)CCN1C(=O)C1CCC1 (stereo not drawn) [Example 10-6, 1-(cyclobutanecarbonyl)-N-(naphthalen-2-ylmethyl)-4-(phenylsulfonyl)piperazine-2-carboxamide]
- IC50: 5 µM
- Emax: 96.8%

SMILES: CC(C)C(=O)N1[C@H](C)CN(S(=O)(=O)c2ccccc2)C[C@@H]1C(=O)NCc1ccc(-c2ncccn2)cc1 (relative stereo) [Example 19-5, cis-1-isobutyryl-6-methyl-4-(phenylsulfonyl)-N-(4-(pyrimidin-2-yl)benzyl)piperazine-2-carboxamide]
- IC50: 0.0795 µM
- Emax: 101%

SMILES: CC(C)C(=O)N1[C@H](C)CN(S(=O)(=O)c2ccccc2)C[C@@H]1C(=O)NCc1ccc(-c2ccco2)cn1 (relative stereo) [Example 23, cis-N-((5-(furan-2-yl)pyridin-2-yl)methyl)-1-isobutyryl-6-methyl-4-(phenylsulfonyl)piperazine-2-carboxamide]
- IC50: 0.108 µM
- Emax: 98.9%
